Assay results taken from ChEMBL document CHEMBL1201862, “PubChem BioAssay data set” (2004).
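Growth conditions: 96-well plates. Treatment: test compound, 48 hours, 5 concentrations. Analysis: linear interpolation between bracketing concentrations; unreached endpoints set to highest concentration. GI50 = concentration required for 50% inhibition of growth.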 The source made the active and inactive calls. Cut-off read from the data, not from the text of the source: active = GI50 up to about 1.1 µM and inactive = higher.

Experiments:
Assay in all cases: NCI tumour cell line growth inhibition, 48 h
[1] = system: DMS-273
[2] = system: SNB-78
[3] = system: XF498
[4] = system: DLD-1
[5] = system: RXF 631
[6] = system: LXFL 529
[7] = system: HOP-18
[8] = system: KM-20L2
[9] = system: DMS-114

Compound | GI50 [1] | GI50 [2] | GI50 [3] | GI50 [4] | GI50 [5] | GI50 [6] | GI50 [7] | GI50 [8] | GI50 [9]
Cc1ccc(S(=O)(=O)NC(=O)C2S(=O)(=O)OCCOS2(=O)=O)cc1 | > 100 µM (inactive) | > 100 µM (inactive) | > 100 µM (inactive) | > 100 µM (inactive) | > 100 µM (inactive) | > 100 µM (inactive) |  |  | 
COc1ccc(/C(=N/NC(=O)NN)C(c2ccc(OC)cc2)C2(O)CNc3c(Cl)cc(Cl)cc32)cc1 (stereo not given) |  | > 100 µM (inactive) |  | > 100 µM (inactive) | 48.3 µM (inactive) | 65.6 µM (inactive) | 53.2 µM (inactive) | > 100 µM (inactive) | 71.8 µM (inactive)
Cn1c(CBr)nc2c1C(=O)c1nc(CBr)[nH]c(=O)c1C2=O |  |  |  | > 100 µM (inactive) | > 100 µM (inactive) | 53.7 µM (inactive) | > 100 µM (inactive) | 46.1 µM (inactive) | > 100 µM (inactive)
O=[N+]([O-])C1(CO)COC2(OC1)c1ccccc1-c1ccccc12 | > 100 µM (inactive) | > 100 µM (inactive) |  | 36 µM (inactive) | > 100 µM (inactive) | > 100 µM (inactive) | > 100 µM (inactive) | > 100 µM (inactive) | > 100 µM (inactive)
COc1cc2c(cc1OC)[C@H]1CN3CCC[C@H]3C=C1c1ccc(OC)c(O)c1-2 | < 0.0001 µM (active) | < 0.0001 µM (active) | < 0.0001 µM (active) | < 0.0001 µM (active) |  | < 0.0001 µM (active) | < 0.0001 µM (active) | < 0.0001 µM (active) | < 0.0001 µM (active)
CSc1nc(NC2OCC(OC(C)=O)C(OC(C)=O)C2OC(C)=O)c(/N=C\C=N\c2c(NC3OCC(OC(C)=O)C(OC(C)=O)C3OC(C)=O)nc(SC)n(C)c2=O)c(=O)n1C (stereo not given) | > 100 µM (inactive) |  |  | > 100 µM (inactive) |  | > 100 µM (inactive) | > 100 µM (inactive) | > 100 µM (inactive) | > 100 µM (inactive)
CCOC(=O)c1[nH]c(COC(C)=O)c2c1CCCCCCCCCC2 | > 100 µM (inactive) | > 100 µM (inactive) | > 100 µM (inactive) | > 100 µM (inactive) |  | > 100 µM (inactive) | > 100 µM (inactive) | > 100 µM (inactive) | > 100 µM (inactive)
OCC[N+]12CCCN1CCC2 | > 100 µM (inactive) | > 100 µM (inactive) |  | > 100 µM (inactive) |  | > 100 µM (inactive) | > 100 µM (inactive) | > 100 µM (inactive) | > 100 µM (inactive)
CN1S(=O)(=O)N(C)P12(N=P(CP(=NP13(N(C)S(=O)(=O)N1C)N(C)S(=O)(=O)N3C)(c1ccccc1)c1ccccc1)(c1ccccc1)c1ccccc1)N(C)S(=O)(=O)N2C | > 100 µM (inactive) | > 100 µM (inactive) | > 100 µM (inactive) | > 100 µM (inactive) | > 100 µM (inactive) | > 100 µM (inactive) | > 100 µM (inactive) | > 100 µM (inactive) | > 100 µM (inactive)
COc1cccc(OC)c1/C=N\N1C(=O)c2ccccc2C1=O | 21.1 µM (inactive) | 59.4 µM (inactive) | 28.6 µM (inactive) | 49 µM (inactive) | 29.4 µM (inactive) | 40.7 µM (inactive) | > 100 µM (inactive) | 19.2 µM (inactive) | 31.6 µM (inactive)
CCCCCCCC(=O)OC(CBr)COC(=O)C(C)(C)C (stereo not given) | > 84.5 µM (inactive) | > 100 µM (inactive) | > 100 µM (inactive) | > 100 µM (inactive) | > 100 µM (inactive) | > 100 µM (inactive) | > 100 µM (inactive) | > 100 µM (inactive) | > 77.1 µM (inactive)
C#CCN(N=O)C(=O)NCCCC(NC(C)=O)C(=O)NCc1ccccc1 (stereo not given) |  | > 100 µM (inactive) | 0.0526 µM (active) | > 100 µM (inactive) | > 100 µM (inactive) | > 100 µM (inactive) | > 100 µM (inactive) | > 100 µM (inactive) | > 100 µM (inactive)
COc1cc(/C=C/c2ccc(OC(C)=O)cc2)cc(OC)c1OC | 26.9 µM (inactive) | 35.1 µM (inactive) |  | 32.3 µM (inactive) | 11.6 µM (inactive) | 29.3 µM (inactive) | 55.3 µM (inactive) | 33.7 µM (inactive) | 22.9 µM (inactive)
O=C1C=C(Br)C(=O)C(Br)=C1 | > 100 µM (inactive) | > 100 µM (inactive) | > 100 µM (inactive) | > 96.6 µM (inactive) | > 100 µM (inactive) | 54.5 µM (inactive) | > 100 µM (inactive) | > 100 µM (inactive) | > 72.4 µM (inactive)
CC(C)C(Sc1nc(-c2ccccc2)c(-c2ccccc2)[nH]1)c1n[nH]c(=S)n1-c1ccccc1 (stereo not given) | 23.6 µM (inactive) | 46 µM (inactive) | 37.7 µM (inactive) | 41.5 µM (inactive) |  | 18.5 µM (inactive) |  | 29.1 µM (inactive) | 
COc1cc(/C=C\c2ccccc2)cc(OC)c1OC | 1.24 µM (inactive) | 7.83 µM (inactive) | 3.9 µM (inactive) | 3.19 µM (inactive) | 8.87 µM (inactive) | 6.56 µM (inactive) | > 36.8 µM (inactive) | 1.64 µM (inactive) | 3.06 µM (inactive)
COc1ccc(/C=C/C(=O)c2sc(Nc3ccc([N+](=O)[O-])cc3)nc2C)cc1 | 41.1 µM (inactive) | 46.2 µM (inactive) |  | 29.1 µM (inactive) | 34.2 µM (inactive) |  | 78.2 µM (inactive) | 48.6 µM (inactive) | 31.3 µM (inactive)
COc1ccc(/C=C2\CCC(CN(C)C)C2=O)cc1OC (stereo not given) | 14.4 µM (inactive) | 17.5 µM (inactive) | 13.5 µM (inactive) | 2.69 µM (inactive) | 6.84 µM (inactive) | 2.43 µM (inactive) | 20.8 µM (inactive) | 12.8 µM (inactive) | 12.5 µM (inactive)
C=CC[P@@]1(=O)O[C@H](c2ccccc2)C(C)N1C(C)C (stereo not given in full) | > 100 µM (inactive) | > 100 µM (inactive) | > 100 µM (inactive) | > 100 µM (inactive) | > 100 µM (inactive) | > 100 µM (inactive) | > 100 µM (inactive) |  | > 100 µM (inactive)
Cc1ccc(C(=O)O/N=C2/CCC/C2=C\c2ccccc2)cc1 | > 100 µM (inactive) | > 100 µM (inactive) |  | > 100 µM (inactive) |  | > 100 µM (inactive) | > 100 µM (inactive) | > 100 µM (inactive) | > 100 µM (inactive)
COc1cc2c(cc1C1=NC(C)(C)CO1)OCO2 |  |  | > 100 µM (inactive) | > 100 µM (inactive) | > 100 µM (inactive) | > 100 µM (inactive) | > 100 µM (inactive) | > 100 µM (inactive) | > 100 µM (inactive)
CN1c2c(O)nc(N)nc2NCC1CCNc1ccc(C(=O)NC(CCC(=O)O)C(=O)O)cc1 (stereo not given) | 15.1 µM (inactive) | 1130 µM (inactive) | 394 µM (inactive) | 891 µM (inactive) |  |  | 1550 µM (inactive) | 573 µM (inactive) | 294 µM (inactive)
CC(c1ccc(Br)cc1)C(C(=O)O)C(=O)O (stereo not given) | > 100 µM (inactive) | > 100 µM (inactive) |  | > 100 µM (inactive) |  | > 100 µM (inactive) | > 100 µM (inactive) | > 100 µM (inactive) | > 100 µM (inactive)
O=S(=O)(O)c1ccc(/N=N/c2nc(C(F)(F)F)c(C(F)(F)F)[nH]2)cc1 | > 100 µM (inactive) | 96.2 µM (inactive) | 17.2 µM (inactive) | 43.5 µM (inactive) | 30.8 µM (inactive) | 87.3 µM (inactive) | 25.5 µM (inactive) | 76.7 µM (inactive) | 16.8 µM (inactive)
COc1ccc(N2C(=O)C3c4[nH]c5ccccc5c4C4CCCCCCCCCCC4C3C2=O)cc1 (stereo not given) | 6.31 µM (inactive) |  | 12.9 µM (inactive) | 8.77 µM (inactive) |  | 6.93 µM (inactive) | 3.03 µM (inactive) | 3.15 µM (inactive) | 18 µM (inactive)
CC(C)(C)OP(=O)(OC(C)(C)C)C(O)c1ccc(/C=C(\C#N)C(N)=O)cc1 (stereo not given) | > 100 µM (inactive) | > 100 µM (inactive) | > 100 µM (inactive) | > 100 µM (inactive) |  | > 100 µM (inactive) |  | > 100 µM (inactive) | > 100 µM (inactive)
CCCCCCCCCCCCCCCCCC(=O)NCC(COP(=O)(O)O)OCC (stereo not given) | 77.1 µM (inactive) | 22.5 µM (inactive) | 51.8 µM (inactive) | > 100 µM (inactive) | 25.8 µM (inactive) | > 100 µM (inactive) |  |  | 33.6 µM (inactive)
CN1/C(=C/C(=O)c2ccc(Cl)cc2)Nc2ccccc21 |  | > 100 µM (inactive) | 60.3 µM (inactive) | 37.4 µM (inactive) | 43.3 µM (inactive) | 33.2 µM (inactive) |  | 29.2 µM (inactive) | 
N#C/C(=C1\SC(/N=N/c2ccc(Cl)cc2)C(=O)N1c1ccccc1)c1nc2ccccc2[nH]1 (stereo not given) | 36.8 µM (inactive) | 42.1 µM (inactive) | 31.3 µM (inactive) | > 100 µM (inactive) |  | 24.6 µM (inactive) |  | > 100 µM (inactive) | 
O=[N+]([O-])c1cccc2nc3ccccc3c(NCCN(CCO)CCO)c12 | 0.012 µM (active) | 0.0221 µM (active) | 0.00512 µM (active) | 0.0069 µM (active) | 0.00457 µM (active) | 0.0187 µM (active) | 0.0443 µM (active) | 0.00509 µM (active) | 
